# Measurements published in US20080200337A1, “Mixed herbicide compositions for paddy field” (Bayer CropScience, priority 2007, published 2008).
# Experiments:
# Assay type in all cases: in vivo
# Echinochloa cruss-galli = experiment: Weed control by spray treatment at 1.5 to 3.0 leaf-stage (Test Example 3); details: spray at 1.5 to 3.0 leaf-stage, 4 weeks later
# Protocol: (§1) Carrier: 5 parts by weight of acetone
# (§2) Surfactant: one part by weight of benzyloxy polyglycol ether.
# (§3) Above described carrier and surfactant are mixed with one part by weight of the active compound ((a) ingredient and (b) ingredient) and the resulting preparation is then diluted with water to obtain given amount of the test drug (the formulation).
# (§4) In a greenhouse, seeds of rice (var.: Nipponbare and RD23) and weeds (Echinochloa oryzicola Vasing, Echinochloa cruss-galli, Leptochloa chinensis, Cyperus difformis L., Cyperus iria L., annual broad-leaved weeds (Monochoria vaginalis Presl, Lindernia procumbens Philcox, Lindernia dubia L. Penn., Rotala indica Koehne, Elatine triandra Schk, Ammannia multiflora Roxb. and the like)) were sown in a 500 cm^2 pot filled with paddy field soil and covered with soil. Water was added to the pot (a depth of 0 cm) to be a wet condition, and each test plant was grown in the greenhouse to 1.5 to 3.0 leaf-stage, after then a prescribed, diluted solution of the formulation of each active compound and each herbicidal compound in the table were separately or simultaneously sprayed over the pots with plants. At 3 days after the treatment, the water depth of 3 cm was maintained, and 4 weeks later, herbicidal effect was then examined. In the assessment of the herbicidal effect and the phytotoxicity, 100% refers to complete death and 0% refers to no effect or no phytotoxicity.
# Leptochloa chinensis = experiment: as above; details: spray at 1.5 to 3.0 leaf-stage, 4 weeks later
# Protocol: as §1, §2, §3, §4
# [1] = tested on: Echinochloa oryzicola Vasing; experiment: as above; details: spray at 1.5 to 3.0 leaf-stage, 4 weeks later
# Protocol: as §1, §2, §3, §4
# Cyperus iria L. = experiment: as above; details: spray at 1.5 to 3.0 leaf-stage, 4 weeks later
# Protocol: as §1, §2, §3, §4
# Cyperus difformis L. = experiment: as above; details: spray at 1.5 to 3.0 leaf-stage, 4 weeks later
# Protocol: as §1, §2, §3, §4
# [2] = tested on: Monochoria vaginalis Presl; experiment: as above; details: spray at 1.5 to 3.0 leaf-stage, 4 weeks later
# Protocol: as §1, §2, §3, §4
# [3] = tested on: annual broad-leaved weeds; experiment: as above; details: spray at 1.5 to 3.0 leaf-stage, 4 weeks later
# Protocol: as §1, §2, §3, §4
# [4] = tested on: submerged direct sown paddy (Nipponbare); experiment: Phytotoxicity, spray treatment at 1.5 to 3.0 leaf-stage (Test Example 3); details: spray at 1.5 to 3.0 leaf-stage, 4 weeks later
# Protocol: as §1, §2, §3, §4
# [5] = tested on: submerged direct sown paddy (RD-23); experiment: as above; details: spray at 1.5 to 3.0 leaf-stage, 4 weeks later, RD-23
# Protocol: as §1, §2, §3, §4
# Echinochloa [6] = experiment: Weed control, flooded paddy field, treatment at 3 leaf-stage (Test Example 2); details: after 4 weeks
# Protocol: as §1, §2, §3
# (§5) In a greenhouse, seeds or tubers of Echinochloa, Cyperus difformis L., Scirpus juncoides Roxburgh, Monochoria vaginalis Presl, annual broad-leaved weeds (Lindernia procumbens Philcox, Lindernia dubia L. Penn., Rotala indica Koehne, Elatine triandra Schk, Ammannia multiflora Roxb.), Cyperus serotinus Rottboel and Sagittaria pygmaea Miq. were inoculated in a 500 cm^2 pot filled with paddy field soil. After 2 leaf-stage of rice were transplanted, water was poured to a depth of about 3 cm. At 3.0 leaf-stage of Echinochloa, a prescribed, diluted solution of the formulation of each active compound and each herbicidal compound in the table was separately or simultaneously applied to the surface of water. After the treatment, the water depth of 3 cm was maintained, and herbicidal effect was examined after 4 weeks. In the assessment of the herbicidal effect and the phytotoxicity, 100% refers to complete death and 0% refers to no effect or no phytotoxicity.
# Sagittaria pygmaea Miq. [7] = experiment: as above; details: after 4 weeks
# Protocol: as §1, §2, §3, §5
# [8] = tested on: Scirpus juncoides Roxburgh; experiment: as above; details: after 4 weeks
# Protocol: as §1, §2, §3, §5
# [9] = tested on: Cyperus serotinus Rottboel; experiment: as above; details: after 4 weeks
# Protocol: as §1, §2, §3, §5
# [10] = tested on: Monochoria vaginalis Presl; experiment: as above; details: after 4 weeks
# Protocol: as §1, §2, §3, §5
# [11] = tested on: annual broad-leaved weeds; experiment: as above; details: after 4 weeks
# Protocol: as §1, §2, §3, §5
# transplanted rice [12] = experiment: Phytotoxicity, flooded paddy field, treatment at 1 leaf-stage (Test Example 1); details: treatment at 1 leaf-stage, after 4 weeks
# Protocol: as §1, §2, §3
# as §5, with “Echinochloa,” for “Echinochloa, Cyperus difformis L.,”, “1.0” for “3.0”, “Echinochloa oryzicola Vasing,” for “Echinochloa,”
# Echinochloa [13] = experiment: Weed control, flooded paddy field, treatment at 1 leaf-stage (Test Example 1); details: after 4 weeks
# Protocol: as §1, §2, §3
# as §5, with “Echinochloa,” for “Echinochloa, Cyperus difformis L.,”, “1.0” for “3.0”, “Echinochloa oryzicola Vasing,” for “Echinochloa,”
# Sagittaria pygmaea Miq. [14] = experiment: as above; details: after 4 weeks
# Protocol: as §1, §2, §3
# as §5, with “Echinochloa,” for “Echinochloa, Cyperus difformis L.,”, “1.0” for “3.0”, “Echinochloa oryzicola Vasing,” for “Echinochloa,”
# [15] = tested on: Scirpus juncoides Roxburgh; experiment: as above; details: after 4 weeks
# Protocol: as §1, §2, §3
# as §5, with “Echinochloa,” for “Echinochloa, Cyperus difformis L.,”, “1.0” for “3.0”, “Echinochloa oryzicola Vasing,” for “Echinochloa,”
# [16] = tested on: Cyperus serotinus Rottboel; experiment: as above; details: after 4 weeks
# Protocol: as §1, §2, §3
# as §5, with “Echinochloa,” for “Echinochloa, Cyperus difformis L.,”, “1.0” for “3.0”, “Echinochloa oryzicola Vasing,” for “Echinochloa,”
# [17] = tested on: Monochoria vaginalis Presl; experiment: as above; details: after 4 weeks
# Protocol: as §1, §2, §3
# as §5, with “Echinochloa,” for “Echinochloa, Cyperus difformis L.,”, “1.0” for “3.0”, “Echinochloa oryzicola Vasing,” for “Echinochloa,”
# [18] = tested on: annual broad-leaved weeds; experiment: as above; details: after 4 weeks
# Protocol: as §1, §2, §3
# as §5, with “Echinochloa,” for “Echinochloa, Cyperus difformis L.,”, “1.0” for “3.0”, “Echinochloa oryzicola Vasing,” for “Echinochloa,”
# transplanted rice [19] = experiment: Phytotoxicity, flooded paddy field, treatment at 3 leaf-stage (Test Example 2); details: treatment at 3 leaf-stage, after 4 weeks
# Protocol: as §1, §2, §3, §5
smiles,measurement,setting,value
COc1nc(OC)nc(C(=O)c2cccc(F)c2N(C)S(=O)(=O)C(F)F)n1 [(a-1)],Herbicidal effect (%) ECHCG,Echinochloa cruss-galli; 30 g ai/ha,100%
same,Herbicidal effect (%) ECHCG,Echinochloa cruss-galli; 50 g ai/ha,100%
same,Herbicidal effect (%) LEFCH,Leptochloa chinensis; 30 g ai/ha,75%
same,Herbicidal effect (%) LEFCH,Leptochloa chinensis; 50 g ai/ha,90%
same,Herbicidal effect (%) ECHOR,[1]; 30 g ai/ha,100%
same,Herbicidal effect (%) ECHOR,[1]; 50 g ai/ha,100%
same,Herbicidal effect (%) CYPIR,Cyperus iria L.; 30 g ai/ha,100%
same,Herbicidal effect (%) CYPIR,Cyperus iria L.; 50 g ai/ha,100%
same,Herbicidal effect (%) CYPDI,Cyperus difformis L.; 30 g ai/ha,100%
same,Herbicidal effect (%) CYPDI,Cyperus difformis L.; 50 g ai/ha,100%
same,Herbicidal effect (%) MOOVP,[2]; 30 g ai/ha,85%
same,Herbicidal effect (%) MOOVP,[2]; 50 g ai/ha,85%
same,Herbicidal effect (%) BBBBB,[3]; 30 g ai/ha,70%
same,Herbicidal effect (%) BBBBB,[3]; 50 g ai/ha,70%
same,Phytotoxicity (%) ORYSW*^1,[4]; 30 g ai/ha,5%
same,Phytotoxicity (%) ORYSW*^1,[4]; 50 g ai/ha,10%
same,Phytotoxicity (%) ORYSW*^2,[5]; 30 g ai/ha,5%
same,Phytotoxicity (%) ORYSW*^2,[5]; 50 g ai/ha,10%
same,Herbicidal effect (%) ECHSS,Echinochloa [6]; 30 g ai/ha,90%
same,Herbicidal effect (%) ECHSS,Echinochloa [6]; 50 g ai/ha,90%
same,Herbicidal effect (%) SAGPY,Sagittaria pygmaea Miq. [7]; 30 g ai/ha,70%
same,Herbicidal effect (%) SAGPY,Sagittaria pygmaea Miq. [7]; 50 g ai/ha,73%
same,Herbicidal effect (%) SCPSS,[8]; 30 g ai/ha,80%
same,Herbicidal effect (%) SCPSS,[8]; 50 g ai/ha,83%
same,Herbicidal effect (%) CYPSEE,[9]; 30 g ai/ha,90%
same,Herbicidal effect (%) CYPSEE,[9]; 50 g ai/ha,90%
same,Herbicidal effect (%) MOOVP,[10]; 30 g ai/ha,20%
same,Herbicidal effect (%) MOOVP,[10]; 50 g ai/ha,45%
same,Herbicidal effect (%) BBBBB,[11]; 30 g ai/ha,21%
same,Herbicidal effect (%) BBBBB,[11]; 50 g ai/ha,30%
same,Phytotoxicity (%) ORYSP,transplanted rice [12]; 30 g ai/ha,0%
same,Phytotoxicity (%) ORYSP,transplanted rice [12]; 50 g ai/ha,0%
same,Herbicidal effect (%) ECHSS,Echinochloa [13]; 30 g ai/ha,93%
same,Herbicidal effect (%) ECHSS,Echinochloa [13]; 50 g ai/ha,95%
same,Herbicidal effect (%) SAGPY,Sagittaria pygmaea Miq. [14]; 30 g ai/ha,70%
same,Herbicidal effect (%) SAGPY,Sagittaria pygmaea Miq. [14]; 50 g ai/ha,90%
same,Herbicidal effect (%) SCPSS,[15]; 30 g ai/ha,85%
same,Herbicidal effect (%) SCPSS,[15]; 50 g ai/ha,87%
same,Herbicidal effect (%) CYPSEE,[16]; 30 g ai/ha,90%
same,Herbicidal effect (%) CYPSEE,[16]; 50 g ai/ha,93%
same,Herbicidal effect (%) MOOVP,[17]; 30 g ai/ha,25%
same,Herbicidal effect (%) MOOVP,[17]; 50 g ai/ha,47%
same,Herbicidal effect (%) BBBBB,[18]; 30 g ai/ha,25%
same,Herbicidal effect (%) BBBBB,[18]; 50 g ai/ha,45%
same,Phytotoxicity (%) ORYSP,transplanted rice [19]; 30 g ai/ha,0%
same,Phytotoxicity (%) ORYSP,transplanted rice [19]; 50 g ai/ha,0%
COc1nc(OC)nc(C(=O)c2cccc(Cl)c2N(C)S(=O)(=O)C(F)F)n1 [(a-2)],Herbicidal effect (%) ECHCG,Echinochloa cruss-galli; 30 g ai/ha,100%
same,Herbicidal effect (%) ECHCG,Echinochloa cruss-galli; 50 g ai/ha,100%
same,Herbicidal effect (%) LEFCH,Leptochloa chinensis; 30 g ai/ha,65%
same,Herbicidal effect (%) LEFCH,Leptochloa chinensis; 50 g ai/ha,65%
same,Herbicidal effect (%) ECHOR,[1]; 30 g ai/ha,100%
same,Herbicidal effect (%) ECHOR,[1]; 50 g ai/ha,100%
same,Herbicidal effect (%) CYPIR,Cyperus iria L.; 30 g ai/ha,100%
same,Herbicidal effect (%) CYPIR,Cyperus iria L.; 50 g ai/ha,100%
same,Herbicidal effect (%) CYPDI,Cyperus difformis L.; 30 g ai/ha,100%
same,Herbicidal effect (%) CYPDI,Cyperus difformis L.; 50 g ai/ha,100%
same,Herbicidal effect (%) MOOVP,[2]; 30 g ai/ha,40%
same,Herbicidal effect (%) MOOVP,[2]; 50 g ai/ha,65%
same,Herbicidal effect (%) BBBBB,[3]; 30 g ai/ha,70%
same,Herbicidal effect (%) BBBBB,[3]; 50 g ai/ha,85%
same,Phytotoxicity (%) ORYSW*^1,[4]; 30 g ai/ha,5%
same,Phytotoxicity (%) ORYSW*^1,[4]; 50 g ai/ha,10%
same,Phytotoxicity (%) ORYSW*^2,[5]; 30 g ai/ha,5%
same,Phytotoxicity (%) ORYSW*^2,[5]; 50 g ai/ha,10%
COc1nc(OC)nc(C(O)c2cccc(Cl)c2N(C)S(=O)(=O)C(F)F)n1 (stereo not shown) [(a-4)],Herbicidal effect (%) ECHCG,Echinochloa cruss-galli; 30 g ai/ha,100%
same,Herbicidal effect (%) ECHCG,Echinochloa cruss-galli; 50 g ai/ha,100%
same,Herbicidal effect (%) LEFCH,Leptochloa chinensis; 30 g ai/ha,50%
same,Herbicidal effect (%) LEFCH,Leptochloa chinensis; 50 g ai/ha,50%
same,Herbicidal effect (%) ECHOR,[1]; 30 g ai/ha,100%
same,Herbicidal effect (%) ECHOR,[1]; 50 g ai/ha,100%
same,Herbicidal effect (%) CYPIR,Cyperus iria L.; 30 g ai/ha,100%
same,Herbicidal effect (%) CYPIR,Cyperus iria L.; 50 g ai/ha,100%
same,Herbicidal effect (%) CYPDI,Cyperus difformis L.; 30 g ai/ha,100%
same,Herbicidal effect (%) CYPDI,Cyperus difformis L.; 50 g ai/ha,100%
same,Herbicidal effect (%) MOOVP,[2]; 30 g ai/ha,25%
same,Herbicidal effect (%) MOOVP,[2]; 50 g ai/ha,25%
same,Herbicidal effect (%) BBBBB,[3]; 30 g ai/ha,65%
same,Herbicidal effect (%) BBBBB,[3]; 50 g ai/ha,75%
same,Phytotoxicity (%) ORYSW*^1,[4]; 30 g ai/ha,0%
same,Phytotoxicity (%) ORYSW*^1,[4]; 50 g ai/ha,5%
same,Phytotoxicity (%) ORYSW*^2,[5]; 30 g ai/ha,0%
same,Phytotoxicity (%) ORYSW*^2,[5]; 50 g ai/ha,0%
